The values below come from patent US6358517B1, “Cosmetic compositions containing resveratrol and retinoids” (Unilever Home & Personal Care USA, division of Conopco, priority 1999, dated 2002).

Experiment [1] concerns Cellular Retinoic Acid Binding Protein 2 (CRABP-2). Kind of experiment: CRABP-2 expression in pig skin organ culture (epidermis), Western blot. Conditions: for effects on CRABP-2 expression (in words): alone, pig skin epidermis, summary of Table 1. It counts as cell-based. Here is the method: 7 mm pig skin biopsies were taken, plated in serum free DMEM, and incubated for 2 days. The media was then switched to phenol-red free media. The biopsies were topically treated with resveratrol for 24 hrs in 5 μl ethanol per biopsy. After 24 hours, retinoids were topically applied to the biopsies. The treated biopsies were incubated for 4 days thereafter. After treatment phase, the biopsies were rinsed in 1×phosphate-buffer twice and then frozen at −20° C. for future use. The epidermis and dermis was separated by freezing and scraping off the epidermis. The epidermis was collected and homogenized in lysis buffer (contains 1×PBS, 1% TritonX, 0.5% sodium deoxycholate, 0.1% SDS containing protease inhibitor (10 mg/ml PMSF in isopropanol at 10 μl/ml, Aprotinin 30 μl/ml and 100 mM sodium orthovanadate at 10 μl/ml). This homogenate was then spun at 14000 rpm and the supernatant was collected for determining protein (aliquot of the supernatant for protein determination).
Within the cells, retinol and retinoic acid are bound to specific cellular binding proteins. […] These proteins regulate the intracellular concentration of retinoids by acting as either storage or shuttle proteins in retinoid metabolism. The levels of CRABP protein are regulated by the amount of retinoic acid within the cells. Higher cellular levels of retinoids increase the expression of CRABP-2. Therefore, the amount of this protein in the cells, is a measure of the retinoid activity of the cells. Skin cells contain high levels of CRABP-2 both in the epidermis and the dermis. […] Increase in CRABP-2 is also associated with increased epidermal differentiation, and dermal retinoid action. Therefore, in these studies we used CRABP-2 expression of fibroblasts and pig skin epidermis as a measure of retinoid activity leading to increased epidermal differentiation (skin conditioning and dry skin benefit) and dermal collagen and extracellular matrix synthesis (antiaging, anti wrinkling benefits).
To measure the levels of CRABP-2 in the fibroblast and pig skin extracts prepared as described above, the cell supernatant was re-suspended in 4×sample buffer and 10% BME, boiled for 5 minutes and used for western blotting. […] The gels were transferred to PVDF membranes and Western Blotting was carried out using monoclonal antibodies to CRABP-2 according to standard procedures. The CRABP-2 protein band was visualized in the Western Blots using the chemiluminescence system obtained from Boehringer Mannheim (Indianopolis, Ind.). The bands in the film were quantified by densitometric scanning, the data from triplicate samples were calculated as % of control and expressed in the following tables as % increase over control (with control as 100%) +/− standard deviation.

Experiment [2] shares this test system. As to the kind of experiment: CRABP-2 expression in human adult skin fibroblasts, Western blot. In kind it is cell-based. The note with it: for CRABP-2 expression in skin fibroblasts in combination with resveratrol (in words): retinoid combined with resveratrol, summary of Tables 2A and 2B. Here is the method:
Human adult fibroblasts obtained from sun-protected inner arm of the […] were used. Cells were grown in 1:1 DMEM/Hams F12 media containing 10% FBS, maintained at 37° C. in a 5% CO2 atmosphere under normal atmospheric oxygen tension. Third passage adult fibroblasts were grown in DMEM media with 10% FBS in 12-well plates at a seeding density of 40,000 cells/ml/well. The cells at 80% confluence were rinsed in serum free and phenol red free (PRF) DMEM media twice. Cells were pretreated with resveratrol for 4 hours was conducted and then dosed with retinoids and incubated for a further 48 hours. After the incubation, the wells were washed twice with 1×PBS and the cell monolayer was harvested in 100 μl cell lysis buffer (contained 1×PBS, 1% TritonX, 0.5% sodium deoxycholate, 0.1% SDS containing protease inhibitor (10 mg/ml PMSF in isopropanol, 10 μl/ml). The suspension was spun at 14000 rpm for 10 minutes, the supernatant collected and an aliquot of this supernatant was used for protein quantification. Protein concentration was determined using Pierce protein kit. The remainder of 1 00ul supernatant (cell lysate) was denatured in a mixture of 40 μl sample buffer (NOVEX) and 0.5% Beta mercaptoethanol (BME) and by boiling the sample for 5 minutes.
Within the cells, retinol and retinoic acid are bound to specific cellular binding proteins. Two of the major proteins are CRABP-1 and CRABP-2 (Roos et al., Pharmacological reviews: 50, 315-333, 1998). These proteins regulate the intracellular concentration of retinoids by acting as either storage or shuttle proteins in retinoid metabolism. The levels of CRABP protein are regulated by the amount of retinoic acid within the cells. Higher cellular levels of retinoids increase the expression of CRABP-2. Therefore, the amount of this protein in the cells, is a measure of the retinoid activity of the cells. Skin cells contain high levels of CRABP-2 both in the epidermis and the dermis. CRABP-2 response to retinoid administration in fibroblasts in vitro is used as a reproducible measure of retinoid bioactivity that predict human skin responses (Elder et al., J. Invest. Dermatol., 106: 517-521, 1996). Increase in CRABP-2 is also associated with increased epidermal differentiation, and dermal retinoid action. Therefore, in these studies we used CRABP-2 expression of fibroblasts and pig skin epidermis as a measure of retinoid activity leading to increased epidermal differentiation (skin conditioning and dry skin benefit) and dermal collagen and extracellular matrix synthesis (antiaging, anti wrinkling benefits).
To measure the levels of CRABP-2 in the fibroblast and pig skin extracts prepared as described above, the cell supernatant was re-suspended in 4×sample buffer and 10% BME, boiled for 5 minutes and used for western blotting. Equal amounts of protein were loaded onto 16% Tris-glycine gels for CRABP-2 protein analysis by SDS-PAGE and Western Immuno-blotting. The gels were transferred to PVDF membranes and Western Blotting was carried out using monoclonal antibodies to CRABP-2 according to standard procedures. The CRABP-2 protein band was visualized in the Western Blots using the chemiluminescence system obtained from Boehringer Mannheim (Indianopolis, Ind.). The bands in the film were quantified by densitometric scanning, the data from triplicate samples were calculated as % of control and expressed in the following tables as % increase over control (with control as 100%) +/− standard deviation. […]

[3] abbreviates: Table 2B, 10 μM Resveratrol alone.
[4] abbreviates: Table 2B, 10 μM Retinoic acid alone.
Where [5] appears, read: Homo sapiens, Skin fibroblast, Table 2A, 100 nM alone, read-out: % of Control.

With `Oc1ccc(/C=C/c2cc(O)cc(O)c2)cc1` [Resveratrol, 5-parahydroxystyryl resorcinol], the activity at 50 µM in experiment [1] (Sus scrofa, Experiment 1, 50 μM, topical on pig skin biopsies, read-out: CRABP-2, Alone (% of control, control as 100%)) stood at 143%. For the same molecule, the activity at 20 µM in experiment [1] (Sus scrofa, Experiment 2, 20 μM, topical on pig skin biopsies, read-out: CRABP-2, Alone (% of control, control as 100%)) was 242%. The “effects on CRABP-2 expression (in words)” value in experiment [1] is given as “only minimal, insignificant effects”. The activity at 10 µM in experiment [2] (Homo sapiens, Skin fibroblast, Table 2A, 10 μM alone, read-out: % of Control) was 27%. The CRAB-2 production in experiment [2] (Table 2A, 10 μM alone) is given as 0.416 +/− 0.12. In addition, in experiment [2] (setting [3]), the “% as Control” value is reported as 32 +/− 1% and the CRABP-2 production is given as 0.185.

`CC1=C(/C=C/C(C)=C/C=C/C(C)=C/C(=O)O)C(C)(C)CCC1` [Retinoic acid]: the activity at 0.001 µM in experiment [2] (Homo sapiens, Skin fibroblast, Table 2A, 1 nM alone, read-out: % of Control) came out at 132%. The activity at 0.01 µM in experiment [2] (Homo sapiens, Skin fibroblast, Table 2A, 10 nM alone, read-out: % of Control) was found to be 165%. In addition, the CRAB-2 production in experiment [2] (Table 2A, 1 nM alone) is on record as 2.056 +/− 0.50; in experiment [2] (Table 2A, 10 nM alone) it was 2.566 +/− 0.19. For the same molecule, the “% as Control” value is listed as 574 +/− 60% in experiment [2] (setting [4]) and 266 +/− 80% in experiment [2] (Table 3, 10 nM alone). Also, the CRABP-2 production in experiment [2] (setting [4]) is listed as 3.27 +/− 0.34; in experiment [2] (Table 3, 10 nM alone), 1.201 +/− 0.36.

Regarding `CC1=C(/C=C/C(C)=C/C=C/C(C)=C/CO)C(C)(C)CCC1` [Retinol], the activity at 5 µM in experiment [1] (Sus scrofa, Experiment 2, 5 μM, topical on pig skin biopsies, read-out: CRABP-2, Alone (% of control, control as 100%)) was determined as 345%. Besides, the “effects on CRABP-2 expression (in words)” value in experiment [1] is reported as “significantly higher stimulation”. In experiment [2] (Table 2B, 1 μM alone), the “% as Control” value is 270 +/− 73% and the CRABP-2 production is 1.54 +/− 0.41. In experiment [2] (Table 3, 100 nM alone), the “% as Control” value was 308 +/− 108% and the CRABP-2 production is listed as 1.387 +/− 0.49. In addition, the “CRABP-2 expression in skin fibroblasts in combination with resveratrol (in words)” value in experiment [2] is listed as “effective”.

`CC(=O)OC/C=C(C)/C=C/C=C(C)/C=C/C1=C(C)CCCC1(C)C` [Retinyl Acetate]: the activity at 0.1 µM in experiment [2] (setting [5]) turned out to be 56%. Further, the “CRABP-2 expression in skin fibroblasts (in words)” value in experiment [2] (Low levels (100 nm), either alone or in combination with resveratrol) is listed as “ineffective”; in experiment [2] (higher levels (Table 2B), in the presence of reveratrol), “stimulated CRABP-2 expression”. In addition, the CRAB-2 production in experiment [2] (Table 2A, 100 nM alone) is given as 0.876 +/− 0.20. Besides, the “% as Control” value in experiment [2] (Table 2B, 1 μM alone) was 178 +/− 102%; in experiment [2] (Table 3, 100 nM alone) it was 124 +/− 42%. Further, the CRABP-2 production in experiment [2] (Table 2B, 1 μM alone) is listed as 1.01 +/− 0.58; in experiment [2] (Table 3, 100 nM alone) it was 0.561 +/− 0.19.

With `CCCCC/C=C\C/C=C\CCCCCCCC(=O)OC/C=C(C)/C=C/C=C(C)/C=C/C1=C(C)CCCC1(C)C` [Retinyl Linoleate], in experiment [2] (Table 2A, 100 nM alone), the “% of Control” value is recorded as 57 +/− 14% and the CRAB-2 production was 0.88 +/− 0.23. For the same molecule, the “% as Control” value in experiment [2] (Table 2B, 1 μM alone) was 112 +/− 75%. Moreover, in experiment [2] (Table 3, 100 nM alone), the “% as Control” value is given as 253 +/− 127% and the CRABP-2 production is 1.141 +/− 0.57.

Regarding `CCCCCCCCCCCCCCCC(=O)OC/C=C(C)/C=C/C=C(C)/C=C/C1=C(C)CCCC1(C)C` [Retinyl Palmitate], the activity at 0.1 µM in experiment [2] (setting [5]) turned out to be 25%. Besides, the CRAB-2 production in experiment [2] (Table 2A, 100 nM alone) is 0.376 +/− 0.11. In experiment [2] (Table 2B, 1 μM alone), the “% as Control” value is listed as 503 +/− 260% and the CRABP-2 production is 2.87 +/− 1.48. Moreover, in experiment [2] (Table 3, 100 nM alone), the “% as Control” value is reported as 254 +/− 101% and the CRABP-2 production is given as 1.143 +/− 0.45. Moreover, the “CRABP-2 expression in skin fibroblasts in combination with resveratrol (in words)” value in experiment [2] was “not effective”.
